Results: ChEMBL document CHEMBL2074268, “Cloning of mouse prostaglandin transporter PGT cDNA: species-specific substrate affinities” (Am J Physiol, 1999)

Assays:
Format in all cases: functional, cell-based
[1] = biological target: Solute carrier organic anion transporter family member 2A1 (Rattus norvegicus, UniProt Q00910); assay: (§1) TP_TRANSPORTER: inhibition of PGE2 uptake in PGT-expressing HeLa cells
[2] = biological target: Solute carrier organic anion transporter family member 2A1 (Homo sapiens, UniProt Q92959); assay: as §1
[3] = biological target: Solute carrier organic anion transporter family member 2A1 (Mus musculus, UniProt Q9EPT5); assay: as §1
Solute carrier organic anion transporter family member 2A1 (Mus musculus, UniProt Q9EPT5), sequence (Q9EPT5 whole entry): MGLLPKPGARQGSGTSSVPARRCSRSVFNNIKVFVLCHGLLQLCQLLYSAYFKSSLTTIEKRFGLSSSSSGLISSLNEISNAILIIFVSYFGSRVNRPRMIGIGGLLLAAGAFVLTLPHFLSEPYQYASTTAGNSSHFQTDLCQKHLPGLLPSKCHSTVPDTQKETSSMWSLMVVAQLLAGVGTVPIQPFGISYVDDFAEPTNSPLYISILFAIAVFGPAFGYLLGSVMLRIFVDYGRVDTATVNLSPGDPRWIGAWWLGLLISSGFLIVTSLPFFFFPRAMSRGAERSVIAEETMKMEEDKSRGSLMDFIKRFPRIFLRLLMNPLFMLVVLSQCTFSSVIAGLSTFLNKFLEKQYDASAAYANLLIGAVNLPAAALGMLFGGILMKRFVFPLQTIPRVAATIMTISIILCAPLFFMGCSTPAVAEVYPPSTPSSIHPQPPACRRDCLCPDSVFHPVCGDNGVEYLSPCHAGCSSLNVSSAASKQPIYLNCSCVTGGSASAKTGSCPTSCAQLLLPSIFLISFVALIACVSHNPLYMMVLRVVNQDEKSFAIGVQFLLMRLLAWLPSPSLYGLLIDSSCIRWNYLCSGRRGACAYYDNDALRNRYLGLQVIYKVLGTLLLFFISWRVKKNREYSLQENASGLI

Ki [1] [nM] | Ki [2] [nM] | Ki [3] [nM] | Structure (SMILES)
45 | 23 | 104 | CCCCC[C@H](O)/C=C/[C@@H]1[C@@H](C/C=C\CCCC(=O)O)[C@@H](O)C[C@H]1O [DINOPROST]
45 | 38 | 98 | CCCCC[C@H](O)/C=C/[C@H]1C(=O)C[C@H](O)[C@@H]1C/C=C\CCCC(=O)O [PROSTAGLANDIN D2]
